Assay results as given in patent US20140296484A1, “Cyclin Based Inhibitors of CDK2 and CDK4” (University of South Carolina, priority 2013, published 2014).
Several values for one entry are separate records, joined by “and”; a condition that tells them apart may be missing. Equal values may be shown once. Read-outs that look alike come from different tables or passages of the source. Where a SMILES comes first, the peptide text is derived from it. Where no end group is shown, it is not given here. [ ]: non-standard residue; d: D form. The star is where a group is joined. X5 = Cc1nc(C(=O)*)nn1-c1cc(Cl)cc(Cl)c1; Ala(cPent) = N[C@@H](CC1CCCC1)C(=O)O; X1 = Cc1nc(C(=O)*)nn1-c1ccc(Cl)cc1; X2 = O=C(c1ccc(-c2ccc(Cl)cc2)o1)*; 3Pal = N[C@@H](Cc1cccnc1)C(=O)O; 2Thi = N[C@@H](Cc1cccs1)C(=O)O; 3Thi = N[C@@H](Cc1ccsc1)C(=O)O; Cba = N[C@@H](CC1CCC1)C(=O)O; Picolinoyl = O=C(c1ccccn1)*; Bz = O=C(c1ccccc1)*

Experiments:
CDK2/cyclin A = CDK2/cyclin A (Homo sapiens, UniProt P20248); assay: Fluorescence polarization (FP) competitive binding assay
Description: (§1) Once the compounds were characterized, their binding affinities were tested by FP assay.

CDK4/Cyclin D1 [1] = biological target: T1, CDK4/Cyclin D1 (Homo sapiens, UniProt P24385); assay: as above
Description: (§2) In order to assess the contribution of the PLA H-bond acceptor, analogous compounds were made in each series and activities for the 4-chloro and 3,5-dichloro analog were evaluated in each context.
(§3) Several additional analogs were synthesized in addition to the 3,5 dichloro and 4-chlorophenyl analogs. In addition to determining their inhibition of CDK2/cyclin A, the availability of the CDK4/cyclin D1 binding assay was exploited to develop SAR for both kinases.
as §1

CDK2/Cyclin A2 = CDK2/Cyclin A2 (Homo sapiens, UniProt P20248); assay: In vitro kinase assay, 32P filter capture with GST-Rb substrate; format: biochemical
CDK4/Cyclin D1 [2] = biological target: T1, CDK4/Cyclin D1; assay: as above; format: biochemical; settings: for IC50: kinase assay
[3] = Fluorescence polarization (FP) competitive binding assay; settings: Table 20; read-out: CDK2/Cyclin A IC050
Description: as §2, §3, §1

36 other protein kinases = settings: cited from earlier work
[4] = system: retinoblastoma (Rb)-positive tumor cells; settings: cited from earlier work
[5] = system: Colo-205 human colon carcinoma xenografts; settings: oral administration to mice bearing Colo-205 xenografts; cited from earlier work
[6] = Table 10, Scaffold III N-caps on the peptide link, read-out: IC50 CDK2/A2
[7] = Table 15, read-out: CDK2/Cyclin D1 IC50
[8] = competitive binding (FP) assay, read-out: CDK2/Cyclin A IC50
[9] = competitive binding (FP) assay, read-out: CDK4/Cyclin D1 IC50

T1 sequence (P24385 whole entry): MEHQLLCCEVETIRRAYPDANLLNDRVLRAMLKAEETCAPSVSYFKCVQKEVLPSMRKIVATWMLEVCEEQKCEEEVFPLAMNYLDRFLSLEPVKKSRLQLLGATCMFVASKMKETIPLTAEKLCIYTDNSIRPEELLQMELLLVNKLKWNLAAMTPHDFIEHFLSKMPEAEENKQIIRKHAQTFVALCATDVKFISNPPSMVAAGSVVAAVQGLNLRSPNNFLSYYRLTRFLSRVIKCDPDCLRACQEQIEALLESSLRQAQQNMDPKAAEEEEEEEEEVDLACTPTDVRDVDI
T1 sequence (P11802 whole entry partner): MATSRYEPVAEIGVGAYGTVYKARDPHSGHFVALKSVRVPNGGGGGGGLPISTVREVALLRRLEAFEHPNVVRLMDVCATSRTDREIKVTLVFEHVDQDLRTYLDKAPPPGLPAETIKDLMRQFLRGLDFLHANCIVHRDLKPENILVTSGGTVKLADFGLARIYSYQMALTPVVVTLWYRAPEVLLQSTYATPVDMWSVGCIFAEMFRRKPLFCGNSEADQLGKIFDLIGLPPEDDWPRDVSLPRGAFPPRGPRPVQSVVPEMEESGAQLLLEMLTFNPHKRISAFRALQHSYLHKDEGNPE

Molecule: CC[C@H](C)[C@H](NC(=O)[C@H](CC(C)C)NC(=O)[C@H](CCCNC(=N)N)NC(=O)c1ccccc1)C(=O)N[C@@H](Cc1ccccc1)C(N)=O [compound 5857] (Bz-RLIF-NH2)
- IC50 (CDK2/cyclin A): > 100 µM
- IC50 (CDK4/Cyclin D1 [1]): 100 to 180 µM

Molecule: 5919 (RLIF) [compound 5919]
- IC50 (CDK2/cyclin A; [6]): 16.7 µM

Molecule: CCN(CCc1ccccc1)C(=O)CC(CC(C)C)NC(=O)[C@H](CCCNC(=N)N)NC(=O)c1nc(C)n(-c2cc(Cl)cc(Cl)c2)n1 (stereo partly shown) [compound 6003]
- IC50 (CDK4/Cyclin D1 [1]; [7]): > 180 µM

Molecule: Cc1nc(C(=O)N[C@@H](CCCNC(=N)N)C(=O)NC(CC(=O)NCc2ccccc2)CC(C)C)nn1-c1cc(Cl)cc(Cl)c1 (stereo partly shown) [compound 6000]
- IC50 (CDK2/cyclin A; [8]): > 180 µM
- IC50 (CDK4/Cyclin D1 [1]; [7]): > 180 µM

Molecule: CC[C@H](C)[C@H](NC(=O)[C@H](CC(C)C)NC(=O)[C@H](CCCNC(=N)N)NC(=O)c1ccc(-c2ccc(Cl)cc2)o1)C(=O)N[C@@H](Cc1ccccc1)C(=O)O [SCCP 5770] (X2-RLIF-OH)
- fold less potent relative to the triazole N capping group (CDK4/Cyclin D1 [1]; CDK4/cyclin D1 context): 25 fold

Molecule: CC[C@H](C)[C@H](NC(=O)[C@H](CC(C)C)NC(=O)[C@H](CCCNC(=N)N)NC(=O)[C@H](CCCNC(=N)N)NC(=O)[C@H](CCCCN)NC(=O)[C@H](C)NC(=O)[C@@H](N)Cc1c[nH]cn1)C(=O)N[C@@H](CC1CCCC1)C(N)=O [HAKRRLIX5] (H-HAKRRLI[Ala(cPent)]-NH2)
- IC50 (CDK2/Cyclin A2): 20 µM
- IC50 (CDK4/Cyclin D1 [2]): 90 µM

Molecule: COc1ccccc1CC(CC(C)C)NC(=O)C(CCCCNC(=N)N)NC(=O)c1nc(C)n(-c2cc(Cl)cc(Cl)c2)n1 (stereo not shown) [compound 5982]
- IC50 (CDK2/cyclin A; [8]): > 180 µM
- IC50 [3]: > 180 µM

Molecule: CC[C@H](C)[C@H](NC(=O)[C@H](CC(C)C)NC(=O)[C@H](CCCNC(=N)N)NC(=O)[C@@H](N)CCCNC(N)=O)C(=O)N[C@@H](Cc1ccccc1)C(N)=O [CitRLIF, Cit-RLIF]
- IC50 (CDK4/Cyclin D1 [2]): 179 µM

Molecule: CC[C@H](C)[C@H](NC(=O)[C@H](CC(C)C)NC(=O)[C@H](CCCNC(=N)N)NC(=O)c1nc(C)n(-c2cc(Cl)cc(Cl)c2)n1)C(=O)N[C@@H](Cc1ccccc1)C(=O)O [SCCP 5773, 1-(3,5-dichlorophenyl)-5-methyl-1H-1,2,4-triazole-3-carbonyl-RLIF] (X5-RLIF-OH)
- IC50 (CDK2/cyclin A; [8]): 12 µM
- IC50 (CDK4/Cyclin D1 [1]; [9]): 27 µM

Molecule: CCCOc1ccc(C)cc1C(CC(C)C)NC(=O)C(CCCCNC(=N)N)NC(=O)c1nc(C)n(-c2cc(Cl)cc(Cl)c2)n1 (stereo not shown) [compound 5980]
- IC50 (CDK2/cyclin A; [8]): > 180 µM
- IC50 [3]: > 180 µM

Molecule: CC[C@H](C)[C@H](NC(=O)[C@H](CC(C)C)NC(=O)[C@H](CCCNC(=N)N)NC(=O)[C@H](CCCNC(=N)N)NC(=O)[C@H](CCCCN)NC(=O)[C@H](C)NC(=O)[C@@H](N)Cc1c[nH]cn1)C(=O)N[C@@H](CC1CCC1)C(N)=O [HAKRRLIX4] (H-HAKRRLI[Cba]-NH2)
- IC50 (CDK2/Cyclin A2): 25 µM
- IC50 (CDK4/Cyclin D1 [2]): 100 µM

Molecule: CC[C@H](C)[C@H](NC(=O)[C@H](CC(C)C)NC(=O)[C@H](CCCNC(=N)N)NC(=O)c1nc(C)n(-c2ccc(Cl)cc2)n1)C(=O)N[C@@H](Cc1ccccc1)C(=O)O [SCCP 5774] (X1-RLIF-OH)
- IC50 (CDK2/cyclin A; [8]): 25 µM
- IC50 (CDK4/Cyclin D1 [1]; [9]): 11 µM

Molecule: CCOc1ccccc1C(CC(C)C)NC(=O)C(CCCCNC(=N)N)NC(=O)c1nc(C)n(-c2cc(Cl)cc(Cl)c2)n1 (stereo not shown) [compound 5984]
- IC50 (CDK2/cyclin A; [8]): > 180 µM
- IC50 [3]: > 180 µM

Molecule: Cc1nc(C(=O)N[C@@H](CCCNC(=N)N)C(=O)NC(CC(C)C)C(=O)NCCCc2ccccc2)nn1-c1cc(Cl)cc(Cl)c1 (stereo partly shown) [SCCP 6004]
- IC50 (CDK2/cyclin A; [8]): 57.7 µM

Molecule: N=C(N)NCCCC(NC(=O)c1ccccc1)C(=O)Nc1ccc2ccccc2c1 (stereo not shown) [N-(5-guanidino-1-(naphthalen-2-ylamino)-1-oxopentan-2-yl)benzamide]
- binding in the FP assay (CDK2/cyclin A; cyclin not specified (Cyclin A and D1 expected)): weakly binding

Molecule: CC(C)C[C@H](NC(=O)[C@H](CCCNC(=N)N)NC(=O)[C@H](CCCNC(=N)N)NC(=O)[C@H](CCCCN)NC(=O)[C@H](C)NC(=O)[C@@H]1CCCN1)C(=O)N[C@@H](Cc1ccccc1)C(=O)NCC(N)=O
- IC50 (CDK4/Cyclin D1 [2]): 6.7 µM

Molecule: 5921 (RLIF; also: C7H16N2 group attached) [compound 5921]
- IC50 (CDK2/cyclin A; [6]): 6.04 µM and 6.6 µM

Molecule: Cc1nc(C(=O)N[C@@H](CCCNC(=N)N)C(=O)NC(CC(=O)NCCc2ccccc2)CC(C)C)nn1-c1cc(Cl)cc(Cl)c1 (stereo partly shown) [compound 6002]
- IC50 (CDK2/cyclin A; [8]): > 180 µM
- IC50 (CDK4/Cyclin D1 [1]; [7]): > 180 µM

Molecule: Cc1nc(C(=O)NC(CCCCNC(=N)N)C(=O)NC(CC(C)C)c2ccccc2OCC(C)C)nn1-c1cc(Cl)cc(Cl)c1 (stereo not shown) [compound 5978]
- IC50 (CDK2/cyclin A; [8]): > 180 µM
- IC50 [3]: > 180 µM

Molecule: CCN(CCc1ccccc1)C(=O)CC(CC(C)C)NC(=O)[C@H](CCCNC(=N)N)NC(=O)c1nc(C)n(-c2cc(Cl)cc(Cl)c2)n1 (stereo partly shown) [SCCP 6003]
- IC50 (CDK2/cyclin A; [8]): 85.6 µM

Molecule: H-HAKTRLIF-NH2
- IC50 (CDK2/Cyclin A2): 50 µM
- IC50 (CDK4/Cyclin D1 [2]): 25 µM

Molecule: CC(C)C[C@@H](CC(=O)NCc1cccc(Oc2ccccc2)c1)NC(=O)[C@H](CCCNC(=N)N)NC(=O)[C@@H](N)CCCNC(=N)N [SCCP 5624, Arg-Arg-β-homoleucyl-3-phenoxybenzylamid]
- selectivity (CDK4/Cyclin D1 [2]; CDK4/cyclin D1 vs CDK2/cyclin A): selective for CDK4/cyclin D1

Molecule: CC(=O)c1c(C)c2cnc(Nc3ccc(N4CCNCC4)cn3)nc2n(C2CCCC2)c1=O [PD0332991]
- activity against 36 other protein kinases (36 other protein kinases): no activity
- antiproliferative activity [4]: potent antiproliferative agent
- tumor response [5]: marked tumor regression

Molecule: COc1ccccc1C(CC(C)C)NC(=O)C(CCCCNC(=N)N)NC(=O)c1nc(C)n(-c2cc(Cl)cc(Cl)c2)n1 (stereo not shown) [compound 5985]
- IC50 (CDK2/cyclin A; [8]): > 180 µM
- IC50 [3]: > 180 µM

Molecule: H-SAKRNLFGM-NH2
- IC50 (CDK4/Cyclin D1 [2]): 146 µM

Molecule: 5920 (RLIF; also: OH in table column, meaning not given here) [compound 5920]
- IC50 (CDK2/cyclin A; [6]): 5.86 µM

Molecule: CCN(Cc1ccccc1)C(=O)CC(CC(C)C)NC(=O)[C@H](CCCNC(=N)N)NC(=O)c1nc(C)n(-c2cc(Cl)cc(Cl)c2)n1 (stereo partly shown) [compound 6001]
- IC50 (CDK2/cyclin A; [8]): > 180 µM
- IC50 (CDK4/Cyclin D1 [1]; [7]): > 180 µM

Molecule: CCN(CCCc1ccccc1)C(=O)C(CC(C)C)NC(=O)[C@H](CCCNC(=N)N)NC(=O)c1nc(C)n(-c2cc(Cl)cc(Cl)c2)n1 (stereo partly shown) [compound 6005]
- IC50 (CDK2/cyclin A; [8]): > 180 µM
- IC50 (CDK4/Cyclin D1 [1]; [7]): > 180 µM

Molecule: CC[C@H](C)[C@H](NC(=O)[C@H](CC(C)C)NC(=O)[C@H](CCCNC(=N)N)NC(=O)c1nc(C)n(-c2cc(Cl)cc(Cl)c2)n1)C(=O)NCc1cccc(Oc2ccccc2)c1 [SCCP10]
- IC50 (CDK4/Cyclin D1 [2]): 8 µM

Molecule: CC[C@H](C)[C@H](NC(=O)[C@H](CC(C)C)NC(=O)[C@H](CCCNC(N)=O)NC(=O)[C@@H](N)CCCNC(=N)N)C(=O)N[C@@H](Cc1ccccc1)C(N)=O [RCitLIF]
- IC50 (CDK4/Cyclin D1 [2]): 179 µM

Molecule: Cc1nc(C(=O)NC(CCCNC(=N)N)C(=O)NC(CC(C)C)C(=O)NCCCc2ccccc2)nn1-c1cc(Cl)cc(Cl)c1 (stereo not shown) [compound 6004]
- IC50 (CDK2/cyclin A; [8]): 57.7 µM
- IC50 (CDK4/Cyclin D1 [1]; [7]): > 180 µM

Molecule: CC[C@H](C)[C@H](NC(=O)[C@H](CC(C)C)NC(=O)[C@H](CCCNC(=N)N)NC(=O)[C@H](CCCNC(=N)N)NC(=O)[C@H](CCCCN)NC(=O)[C@H](C)NC(=O)[C@@H](N)Cc1c[nH]cn1)C(=O)N[C@@H](Cc1ccsc1)C(N)=O [HAKRRLIX3] (H-HAKRRLI[3Thi]-NH2)
- IC50 (CDK2/Cyclin A2): 25 µM

Molecule: CC[C@H](C)[C@H](NC(=O)[C@H](CC(C)C)NC(=O)[C@H](CCCNC(=N)N)NC(=O)[C@H](CCCNC(=N)N)NC(=O)[C@H](CCCCN)NC(=O)[C@H](C)NC(=O)[C@@H](N)Cc1c[nH]cn1)C(=O)N[C@@H](Cc1cccnc1)C(N)=O [HAKRRLIX7] (H-HAKRRLI[3Pal]-NH2)
- IC50 (CDK2/Cyclin A2): 29 µM

Molecule: COc1ccccc1CC(CC(C)C)NC(=O)C(CCCCNC(=N)N)NC(=O)c1nc(C)n(-c2cc(Cl)cc(Cl)c2)n1 (single isomer, unassigned) [compound 5981]
- IC50 (CDK2/cyclin A; [8]): > 180 µM
- IC50 [3]: > 180 µM

Molecule: CC[C@H](C)[C@H](NC(=O)[C@H](CC(C)C)NC(=O)[C@H](CCCNC(=N)N)NC(=O)[C@H](CCCNC(=N)N)NC(=O)[C@H](CCCCN)NC(=O)[C@H](C)NC(=O)[C@@H](N)Cc1c[nH]cn1)C(=O)N[C@@H](Cc1cccs1)C(N)=O [HAKRRLIX2] (H-HAKRRLI[2Thi]-NH2)
- IC50 (CDK2/Cyclin A2): 3.6 µM

Molecule: H-SAKRALFGM-NH2
- IC50 (CDK4/Cyclin D1 [2]): 68 µM

Molecule: CC[C@H](C)[C@H](NC(=O)[C@H](CC(C)C)NC(=O)[C@H](CCCNC(=N)N)NC(=O)c1ccccn1)C(=O)N[C@@H](Cc1ccccc1)C(=O)O [525 (RLIF form)] (Picolinoyl-RLIF-OH)
- IC50 (CDK2/cyclin A; Table 11, value tagged (LIF), read-out: IC50 CDK2/A2 (LIF)): 94.3 ± 14.9 µM
- IC50 (CDK4/Cyclin D1 [1]; Table 11, value tagged (LIF) (0321), read-out: IC50 CDK4/D1 (LIF) (0321)): 49 µM
- IC50 (CDK4/Cyclin D1 [1]; Table 11, value tagged (LIF), read-out: IC50 CDK4/D1 (LIF)): 64 µM
